Measurements as given in the kinase profiling compilation of Christmann-Franck et al. (2016).

Key:
Test in all cases: KINOMEscan competition binding
Settings in all cases: compound 10.0 µM
ABL2 (human) = ABL2 (human) (UniProt P42684)
ACVRL1 (human) = ACVRL1 (human) (UniProt P37023)
AKT1 (human) = AKT1 (human) (UniProt P31749)
AKT3 (human) = AKT3 (human) (UniProt Q9Y243)
BMPR1A (human) = BMPR1A (human) (UniProt P36894)
CAMK2B (human) = CAMK2B (human) (UniProt Q13554)
CDK7 (human) = CDK7 (human) (UniProt P50613)
CHEK2 (human) = CHEK2 (human) (UniProt O96017)
CLK4 (human) = CLK4 (human) (UniProt Q9HAZ1)
DYRK1B (human) = DYRK1B (human) (UniProt Q9Y463)
Chain of DYRK1B (human) (Q9Y463 whole entry, looked up): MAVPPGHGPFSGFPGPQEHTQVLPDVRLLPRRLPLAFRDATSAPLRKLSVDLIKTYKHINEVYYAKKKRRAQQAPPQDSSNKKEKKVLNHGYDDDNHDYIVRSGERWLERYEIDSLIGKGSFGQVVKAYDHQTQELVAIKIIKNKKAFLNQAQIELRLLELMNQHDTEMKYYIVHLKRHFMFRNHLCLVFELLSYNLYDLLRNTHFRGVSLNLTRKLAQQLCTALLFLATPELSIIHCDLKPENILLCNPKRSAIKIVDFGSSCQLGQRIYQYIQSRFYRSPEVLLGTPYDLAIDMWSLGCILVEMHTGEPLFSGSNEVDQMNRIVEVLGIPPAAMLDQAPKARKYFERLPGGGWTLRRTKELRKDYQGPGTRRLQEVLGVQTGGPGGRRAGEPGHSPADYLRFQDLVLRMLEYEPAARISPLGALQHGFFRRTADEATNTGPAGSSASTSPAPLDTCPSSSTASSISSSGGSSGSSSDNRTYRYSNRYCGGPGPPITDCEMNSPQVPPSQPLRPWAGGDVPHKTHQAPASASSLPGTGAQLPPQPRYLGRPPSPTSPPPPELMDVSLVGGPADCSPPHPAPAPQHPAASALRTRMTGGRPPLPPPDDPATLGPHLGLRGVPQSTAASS

EPHA4 (human) = EPHA4 (human) (UniProt P54764)
FGFR1 (human) = FGFR1 (human) (UniProt P11362)
FGFR2 (human) = FGFR2 (human) (UniProt P21802)
Chain of FGFR2 (human) (P21802 whole entry, looked up): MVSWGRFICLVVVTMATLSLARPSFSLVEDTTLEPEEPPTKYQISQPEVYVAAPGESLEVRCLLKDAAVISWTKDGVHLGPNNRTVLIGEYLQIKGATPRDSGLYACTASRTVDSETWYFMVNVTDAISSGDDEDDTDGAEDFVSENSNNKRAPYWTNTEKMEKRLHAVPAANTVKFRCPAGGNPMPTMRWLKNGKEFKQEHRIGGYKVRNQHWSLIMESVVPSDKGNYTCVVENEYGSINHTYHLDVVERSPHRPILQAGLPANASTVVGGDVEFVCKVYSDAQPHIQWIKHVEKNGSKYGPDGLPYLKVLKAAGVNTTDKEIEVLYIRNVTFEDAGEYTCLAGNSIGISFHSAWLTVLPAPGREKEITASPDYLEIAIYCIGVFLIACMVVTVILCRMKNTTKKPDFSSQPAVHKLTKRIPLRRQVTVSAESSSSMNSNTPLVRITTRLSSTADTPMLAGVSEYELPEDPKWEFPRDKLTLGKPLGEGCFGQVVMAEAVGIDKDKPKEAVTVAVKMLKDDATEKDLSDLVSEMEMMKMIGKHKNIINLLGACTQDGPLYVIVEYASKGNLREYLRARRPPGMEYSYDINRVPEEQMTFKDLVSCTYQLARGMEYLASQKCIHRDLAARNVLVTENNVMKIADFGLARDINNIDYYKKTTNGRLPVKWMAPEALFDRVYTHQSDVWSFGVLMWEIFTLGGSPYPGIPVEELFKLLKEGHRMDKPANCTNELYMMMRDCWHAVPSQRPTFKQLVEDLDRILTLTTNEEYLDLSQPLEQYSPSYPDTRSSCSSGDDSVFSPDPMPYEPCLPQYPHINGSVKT

FGFR3 (human) = FGFR3 (human) (UniProt P22607)
FLT1 (human) = FLT1 (human) (UniProt P17948)
FLT4 (human) = FLT4 (human) (UniProt P35916)
FRK (human) = FRK (human) (UniProt P42685)
[1] = molecular target: JAK2 JH1 catalytic (human) (UniProt O60674)
MAP3K10 (human) = MAP3K10 (human) (UniProt Q02779)
Chain of MAP3K10 (human) (Q02779 whole entry, looked up): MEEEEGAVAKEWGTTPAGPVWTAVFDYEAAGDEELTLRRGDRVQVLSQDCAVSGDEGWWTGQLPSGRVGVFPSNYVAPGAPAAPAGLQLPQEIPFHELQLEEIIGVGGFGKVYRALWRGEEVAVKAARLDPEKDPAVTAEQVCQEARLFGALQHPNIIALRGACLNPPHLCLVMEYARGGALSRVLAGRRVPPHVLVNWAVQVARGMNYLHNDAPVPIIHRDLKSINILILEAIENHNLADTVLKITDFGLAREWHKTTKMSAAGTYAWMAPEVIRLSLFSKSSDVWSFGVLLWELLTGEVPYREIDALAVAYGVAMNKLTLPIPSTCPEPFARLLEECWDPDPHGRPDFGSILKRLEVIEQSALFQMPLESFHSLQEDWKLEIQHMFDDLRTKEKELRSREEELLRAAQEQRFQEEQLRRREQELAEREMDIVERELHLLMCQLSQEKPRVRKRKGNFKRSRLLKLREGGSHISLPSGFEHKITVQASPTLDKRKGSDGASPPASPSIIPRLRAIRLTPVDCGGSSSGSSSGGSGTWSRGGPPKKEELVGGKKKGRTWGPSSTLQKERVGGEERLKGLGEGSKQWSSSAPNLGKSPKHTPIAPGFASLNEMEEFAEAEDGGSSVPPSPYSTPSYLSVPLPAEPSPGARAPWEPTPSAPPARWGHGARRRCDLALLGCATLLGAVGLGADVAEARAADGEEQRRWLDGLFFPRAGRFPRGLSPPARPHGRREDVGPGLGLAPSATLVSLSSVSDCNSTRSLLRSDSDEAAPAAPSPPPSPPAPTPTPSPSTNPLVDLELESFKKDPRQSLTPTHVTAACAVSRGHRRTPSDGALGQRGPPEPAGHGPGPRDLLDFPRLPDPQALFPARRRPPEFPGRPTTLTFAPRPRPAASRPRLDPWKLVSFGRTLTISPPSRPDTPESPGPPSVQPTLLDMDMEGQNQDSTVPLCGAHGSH

MAP3K3 (human) = MAP3K3 (human) (UniProt Q99759)
MAP4K2 (human) = MAP4K2 (human) (UniProt Q12851)
MAP4K3 (human) = MAP4K3 (human) (UniProt Q8IVH8)
MAPK10 (human) = MAPK10 (human) (UniProt P53779)
MST1R (human) = MST1R (human) (UniProt Q04912)
Chain of MST1R (human) (Q04912 whole entry, looked up): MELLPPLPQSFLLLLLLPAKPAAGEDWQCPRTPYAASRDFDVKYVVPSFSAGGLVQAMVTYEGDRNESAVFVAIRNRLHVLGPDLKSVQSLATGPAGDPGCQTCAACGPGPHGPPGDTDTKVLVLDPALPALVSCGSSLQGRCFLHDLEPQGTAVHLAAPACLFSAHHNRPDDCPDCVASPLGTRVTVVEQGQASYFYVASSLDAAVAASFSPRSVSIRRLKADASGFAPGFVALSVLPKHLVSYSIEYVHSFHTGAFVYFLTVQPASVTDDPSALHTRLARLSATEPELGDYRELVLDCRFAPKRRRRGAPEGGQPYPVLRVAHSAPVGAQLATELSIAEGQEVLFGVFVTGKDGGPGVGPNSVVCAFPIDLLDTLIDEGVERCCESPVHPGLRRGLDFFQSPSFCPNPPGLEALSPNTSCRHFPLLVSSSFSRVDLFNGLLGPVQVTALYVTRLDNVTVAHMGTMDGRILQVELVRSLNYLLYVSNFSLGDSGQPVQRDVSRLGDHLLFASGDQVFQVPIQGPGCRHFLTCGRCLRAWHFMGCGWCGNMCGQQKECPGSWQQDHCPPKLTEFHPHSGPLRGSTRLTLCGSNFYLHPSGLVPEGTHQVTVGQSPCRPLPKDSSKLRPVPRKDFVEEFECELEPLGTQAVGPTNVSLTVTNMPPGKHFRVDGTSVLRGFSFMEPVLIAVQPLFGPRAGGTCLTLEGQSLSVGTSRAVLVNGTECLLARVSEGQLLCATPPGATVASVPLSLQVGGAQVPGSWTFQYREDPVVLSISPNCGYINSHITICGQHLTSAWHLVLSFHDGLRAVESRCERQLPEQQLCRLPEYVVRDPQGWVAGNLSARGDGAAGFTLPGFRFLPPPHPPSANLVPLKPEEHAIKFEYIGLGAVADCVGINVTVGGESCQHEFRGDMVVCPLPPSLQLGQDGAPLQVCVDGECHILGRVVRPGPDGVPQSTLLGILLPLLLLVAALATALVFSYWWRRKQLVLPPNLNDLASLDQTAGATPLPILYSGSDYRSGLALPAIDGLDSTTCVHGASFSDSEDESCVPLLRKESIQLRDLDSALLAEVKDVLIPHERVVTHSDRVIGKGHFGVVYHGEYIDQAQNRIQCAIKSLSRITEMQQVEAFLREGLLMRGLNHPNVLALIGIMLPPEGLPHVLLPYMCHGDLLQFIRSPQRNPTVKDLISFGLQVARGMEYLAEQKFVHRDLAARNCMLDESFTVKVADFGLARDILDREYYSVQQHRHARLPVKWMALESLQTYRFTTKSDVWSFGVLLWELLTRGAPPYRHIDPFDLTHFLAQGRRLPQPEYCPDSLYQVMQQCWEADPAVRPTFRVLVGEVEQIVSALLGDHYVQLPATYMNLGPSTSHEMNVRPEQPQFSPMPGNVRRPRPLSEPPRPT

MST4 (human) = MST4 (human) (UniProt Q9P289)
NEK2 (human) = NEK2 (human) (UniProt P51955)
PIM2 (human) = PIM2 (human) (UniProt Q9P1W9)
Chain of PIM2 (human) (Q9P1W9 whole entry, looked up): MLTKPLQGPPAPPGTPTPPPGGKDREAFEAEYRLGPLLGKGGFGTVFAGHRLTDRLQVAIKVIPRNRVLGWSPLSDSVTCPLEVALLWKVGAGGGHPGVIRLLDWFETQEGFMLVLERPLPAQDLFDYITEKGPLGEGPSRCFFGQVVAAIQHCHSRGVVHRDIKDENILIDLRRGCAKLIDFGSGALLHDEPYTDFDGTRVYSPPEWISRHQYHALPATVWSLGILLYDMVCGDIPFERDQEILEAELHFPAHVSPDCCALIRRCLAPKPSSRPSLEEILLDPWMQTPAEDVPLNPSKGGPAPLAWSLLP

PIP4K2B (human) = PIP4K2B (human) (UniProt P78356)
PKMYT1 (human) = PKMYT1 (human) (UniProt Q99640)
PLK1 (human) = PLK1 (human) (UniProt P53350)
PLK4 (human) = PLK4 (human) (UniProt O00444)
PRKAA2 (human) = PRKAA2 (human) (UniProt P54646)
PRKCE (human) = PRKCE (human) (UniProt Q02156)
RIOK2 (human) = RIOK2 (human) (UniProt Q9BVS4)
RPS6KA5 KD2 (human) = RPS6KA5 KD2 (human) (UniProt O75582)
RPS6KA6 KD2 (human) = RPS6KA6 KD2 (human) (UniProt Q9UK32)
STK17B (human) = STK17B (human) (UniProt O94768)
Chain of STK17B (human) (O94768 whole entry, looked up): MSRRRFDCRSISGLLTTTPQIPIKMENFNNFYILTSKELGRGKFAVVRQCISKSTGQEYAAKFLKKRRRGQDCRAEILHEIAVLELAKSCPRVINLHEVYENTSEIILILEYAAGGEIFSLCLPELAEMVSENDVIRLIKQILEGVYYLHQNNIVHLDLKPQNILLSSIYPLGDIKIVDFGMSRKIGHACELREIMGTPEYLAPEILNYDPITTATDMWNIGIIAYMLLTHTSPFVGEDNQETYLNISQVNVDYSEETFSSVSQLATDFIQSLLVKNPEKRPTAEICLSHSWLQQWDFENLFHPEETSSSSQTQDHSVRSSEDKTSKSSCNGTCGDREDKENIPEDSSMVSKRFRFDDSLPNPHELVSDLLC

TGFBR1 (human) = TGFBR1 (human) (UniProt P36897)
TGFBR2 (human) = TGFBR2 (human) (UniProt P37173)
[2] = molecular target: TYK2 JH2 pseudokinase (human) (UniProt P29597)

Chain of ACVRL1 (human) (P37023 whole entry, looked up): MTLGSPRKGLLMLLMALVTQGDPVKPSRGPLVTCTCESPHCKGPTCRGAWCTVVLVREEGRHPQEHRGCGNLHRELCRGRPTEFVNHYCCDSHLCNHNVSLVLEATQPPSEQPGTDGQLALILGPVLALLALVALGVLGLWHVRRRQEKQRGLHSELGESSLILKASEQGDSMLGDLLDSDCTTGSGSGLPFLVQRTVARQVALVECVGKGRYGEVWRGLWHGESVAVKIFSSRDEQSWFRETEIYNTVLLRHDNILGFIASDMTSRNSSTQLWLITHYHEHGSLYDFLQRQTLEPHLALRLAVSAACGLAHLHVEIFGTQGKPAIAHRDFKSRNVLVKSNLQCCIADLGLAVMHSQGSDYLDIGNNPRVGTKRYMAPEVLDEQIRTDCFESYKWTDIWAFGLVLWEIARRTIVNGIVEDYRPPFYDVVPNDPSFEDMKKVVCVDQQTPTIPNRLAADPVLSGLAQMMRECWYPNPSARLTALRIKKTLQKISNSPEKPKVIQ

C=CC(=O)Nc1cccc(Nc2nc(N[C@H]3CC[C@H](N(C)C)CC3)nc3c2ncn3C(C)C)c1
kinase still bound, per cent of control (ABL2 (human)): 94%
kinase still bound, per cent of control (ACVRL1 (human)): 100%
kinase still bound, per cent of control (AKT1 (human)): 93%
kinase still bound, per cent of control (AKT3 (human)): 91%
kinase still bound, per cent of control (BMPR1A (human)): 100%
kinase still bound, per cent of control (CAMK2B (human)): 80%
kinase still bound, per cent of control (CDK7 (human)): 15%
kinase still bound, per cent of control (CHEK2 (human)): 60%
kinase still bound, per cent of control (CLK4 (human)): 5.1%
kinase still bound, per cent of control (DYRK1B (human)): 49%
kinase still bound, per cent of control (EPHA4 (human)): 64%
kinase still bound, per cent of control (FGFR1 (human)): 76%
kinase still bound, per cent of control (FGFR2 (human)): 62%
kinase still bound, per cent of control (FGFR3 (human)): 68%
kinase still bound, per cent of control (FLT1 (human)): 100%
kinase still bound, per cent of control (FLT4 (human)): 58%
kinase still bound, per cent of control (FRK (human)): 53%
kinase still bound, per cent of control [1]: 9.1%
kinase still bound, per cent of control (MAP3K10 (human)): 84%
kinase still bound, per cent of control (MAP3K3 (human)): 2.7%
kinase still bound, per cent of control (MAP4K2 (human)): 31%
kinase still bound, per cent of control (MAP4K3 (human)): 25%
kinase still bound, per cent of control (MAPK10 (human)): 100%
kinase still bound, per cent of control (MST1R (human)): 100%
kinase still bound, per cent of control (MST4 (human)): 16%
kinase still bound, per cent of control (NEK2 (human)): 94%
kinase still bound, per cent of control (PIM2 (human)): 100%
kinase still bound, per cent of control (PIP4K2B (human)): 54%
kinase still bound, per cent of control (PKMYT1 (human)): 93%
kinase still bound, per cent of control (PLK1 (human)): 21%
kinase still bound, per cent of control (PLK4 (human)): 85%
kinase still bound, per cent of control (PRKAA2 (human)): 100%
kinase still bound, per cent of control (PRKCE (human)): 52%
kinase still bound, per cent of control (RIOK2 (human)): 66%
kinase still bound, per cent of control (RPS6KA5 KD2 (human)): 95%
kinase still bound, per cent of control (RPS6KA6 KD2 (human)): 100%
kinase still bound, per cent of control (STK17B (human)): 22%
kinase still bound, per cent of control (TGFBR1 (human)): 100%
kinase still bound, per cent of control (TGFBR2 (human)): 100%
kinase still bound, per cent of control [2]: 100%
